In one experiment the test system is NPR-6. As to the kind of experiment: cAMP reporter gene assay, Gi/o (inhibition of forskolin-induced cAMP), NPR-6. The class given is cell-based, C. elegans. Particulars: 1 µM forskolin set to 1.00, transiently transfected HEK293 cells, mean of at least three independent experiments. The protocol:
(§1) Activation of Gs and Gi/o was assessed with a cAMP reporter gene assay. HEK293 cells grown to 70–80% confluency in 6-well plates were transiently co-transfected with vectors encoding the receptor and the cAMP reporter gene plasmid pGL4.29 [luc2P/CRE/Hygro] (Promega; 4 μg total, 1:1 ratio) using Metafectene Pro (3 μl/μg DNA; Biontex) following the manufacturer’s instructions. 16 h post transfection, the cells were seeded into white 384-well plates at a density of 20,000 cells/well. On the next day, the medium was removed and the cells were stimulated with 20 μl of peptide solution (or forskolin as positive control) in serum-free DMEM for 4 h. For measuring Gi/o activity, the peptide solutions additionally contained 1 μM forskolin to elevate cellular cAMP levels. After incubation, the luciferase substrate OneGlo in lysis buffer (Promega) was added and the luminescence was measured in a microplate reader Tecan Spark (Tecan). Data were analyzed with GraphPad Prism 5.03 and are shown as fold of basal or fold of forskolin in case of Gαi/o activity.
(§2) For in vitro activation, data is presented as mean ± SEM of at least three independent experiments conducted in technical triplicate. […] For the C. elegans NPRs, we considered the strongest response elicited by any of the peptides downstream of a particular receptor as the receptor’s maximal signal. This may or may not be the biological maximum that can be reached by the ‘true’ endogenous agonist. For the human receptors, the response to the established endogenous agonist reflected the maximal signal.
In general terms: In a reporter assay the amount or activity of a reporter protein is the signal.

The target of a further experiment is T1, NPR-4b (Caenorhabditis elegans, UniProt A0A078BTK0).
T1 sequence (A0A078BTK0 1-376): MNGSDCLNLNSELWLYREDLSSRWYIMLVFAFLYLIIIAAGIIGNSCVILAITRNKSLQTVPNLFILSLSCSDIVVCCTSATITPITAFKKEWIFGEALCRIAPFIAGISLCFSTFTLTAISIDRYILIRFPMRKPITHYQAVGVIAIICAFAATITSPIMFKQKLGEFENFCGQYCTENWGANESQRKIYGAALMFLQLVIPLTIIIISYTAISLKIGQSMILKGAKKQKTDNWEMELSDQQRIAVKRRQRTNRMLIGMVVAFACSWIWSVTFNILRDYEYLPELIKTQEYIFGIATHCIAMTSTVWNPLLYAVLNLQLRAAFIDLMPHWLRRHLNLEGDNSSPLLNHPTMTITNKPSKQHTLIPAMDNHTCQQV
As to the kind of experiment: cAMP reporter gene assay, Gi/o (inhibition of forskolin-induced cAMP), NPR-4b. The class given is cell-based, C. elegans. To be noted: 1 µM forskolin set to 1.00, transiently transfected HEK293 cells, mean of at least three independent experiments. The protocol: as §1, with “(Tecan).” for “(Tecan). Data were analyzed with GraphPad Prism 5.03 and are shown as fold of basal or fold of forskolin in case of Gαi/o activity.”
as §2

A further experiment has as its target T2, PrRPR (Homo sapiens, UniProt P49683).
T2 construct: expressed in transfected cells; host or cells: HEK293, transient
T2 sequence (P49683 1-370): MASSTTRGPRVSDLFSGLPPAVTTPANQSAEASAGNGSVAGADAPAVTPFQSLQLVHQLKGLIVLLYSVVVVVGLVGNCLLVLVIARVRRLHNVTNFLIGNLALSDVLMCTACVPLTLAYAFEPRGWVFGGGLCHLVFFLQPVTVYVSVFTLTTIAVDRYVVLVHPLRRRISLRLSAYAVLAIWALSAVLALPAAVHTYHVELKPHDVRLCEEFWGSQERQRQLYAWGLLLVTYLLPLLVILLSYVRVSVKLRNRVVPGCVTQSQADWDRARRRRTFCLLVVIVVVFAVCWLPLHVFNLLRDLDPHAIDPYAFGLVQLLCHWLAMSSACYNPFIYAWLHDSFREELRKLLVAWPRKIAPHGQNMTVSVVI
As to the kind of experiment: IP accumulation assay, endogenous Gαq coupling, PrRPR. It counts as cell-based. To be noted: transiently transfected HEK293 cells, mean of at least three independent experiments. The protocol: For measuring IP accumulation, HEK293 cells grown to 70–80% confluency in 6-well plates were transiently co-transfected using Metafectene Pro (2.5 μl/μg DNA; Biontex) with plasmids containing receptor and/or mock (empty pcDNA3.1) (for endogenous Gq-coupling) using 4 μg total DNA in a ratio of 3:1 following the manufacturer’s instructions. For testing Gα16- and GαΔ6qi4myr-coupling, plasmids encoding the corresponding Gα protein were co-transfected instead of mock. Gα16 is naturally promiscuous and stimulates the phospholipase C (PLC) pathway leading to IP production, while the exchange of the C-terminal four amino acids of Gαq for the corresponding residues of Gαi1 in the chimeric GαΔ6qi4myr confers the ability to couple to Gi/o protein-preferring receptors but still stimulate PLC, thus specifically redirecting downstream cellular signaling. 16 h post transfection, the cells were seeded into white 384-well plates at a density of 20,000 cells/well. Media was removed 24 h later and the cells were incubated with the indicated concentration of peptides for 1 h in HBSS + 20 mM LiCl. IP accumulation was measured with the HTRF-based IP-One Gq kit (Cisbio) on a microplate reader (Tecan Spark).
as §2

Another experiment addresses T3, NPR-1 (Caenorhabditis elegans, UniProt Q18534).
T3 sequence (Q18534 1-457): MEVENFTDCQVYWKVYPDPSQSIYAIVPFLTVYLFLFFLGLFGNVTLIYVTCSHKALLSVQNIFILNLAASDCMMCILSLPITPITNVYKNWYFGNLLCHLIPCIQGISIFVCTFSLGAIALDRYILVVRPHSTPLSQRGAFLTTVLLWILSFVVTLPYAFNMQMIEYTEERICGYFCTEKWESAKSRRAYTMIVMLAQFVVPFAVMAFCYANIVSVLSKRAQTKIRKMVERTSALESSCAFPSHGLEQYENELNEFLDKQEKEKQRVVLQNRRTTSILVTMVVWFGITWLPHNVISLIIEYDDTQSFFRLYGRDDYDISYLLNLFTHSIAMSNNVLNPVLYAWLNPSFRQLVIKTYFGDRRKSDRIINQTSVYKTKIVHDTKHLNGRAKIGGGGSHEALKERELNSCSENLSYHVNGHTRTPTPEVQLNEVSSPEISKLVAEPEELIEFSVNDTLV
Kind of experiment: cAMP reporter gene assay, Gi/o (inhibition of forskolin-induced cAMP), NPR-1. The class given is cell-based, C. elegans. Details: host or cells: HEK293. To be noted: inhibition of cAMP production induced by 1 µM forskolin (set to 1.00), lower = higher Gi/o activity, transiently transfected HEK293 cells, mean of at least three independent experiments. The protocol: as §1, §2

Consider “APLEPVYPGDNATPEQMAQYAADLRRYINMLTRPRY-NH2 [PP, human pancreatic polypeptide, reference compound]”, for which the “cAMP, x-fold of forskolin (mean), NPR-6” value in the experiment with NPR-6 (0.1 µM peptide) was 1.01 x-fold of forskolin; with NPR-6 (10 µM peptide) it was 1.00 x-fold of forskolin. In addition, the “cAMP, x-fold of forskolin (mean), NPR-4b” value was 1.05 x-fold of forskolin at NPR-4b (0.1 µM peptide) and 1.14 x-fold of forskolin on NPR-4b (10 µM peptide). Besides, the results for the “IP accumulation, x-fold of basal (mean), PrRPR#” value (shortened to “IP accumulation, x-fold of basal”) at PrRPR (0.1 µM peptide) and at PrRPR (10 µM peptide) were 0.99 x-fold of basal and 1.01 x-fold of basal, respectively. For the same substance, the “cAMP, x-fold of forskolin (mean), NPR-1” value is 1.21 x-fold of forskolin on NPR-1 (0.1 µM peptide) and 1.49 x-fold of forskolin on NPR-1 (10 µM peptide).
In the case of “AGSDPNFLRF-NH2 [FLP-1-2, C. elegans FMRFamide-like peptide, C-terminally amidated, synthesized by SPPS]”, the entries for the “cAMP, x-fold of forskolin (mean), NPR-6” value with NPR-6 (0.1 µM peptide) and in the experiment on NPR-6 (10 µM peptide) were 0.94 x-fold of forskolin and 0.29 x-fold of forskolin, respectively. Also, the “cAMP, x-fold of forskolin (mean), NPR-4b” value at NPR-4b (0.1 µM peptide) was 0.81 x-fold of forskolin; on NPR-4b (10 µM peptide), 0.42 x-fold of forskolin. The “IP accumulation, x-fold of basal” value on PrRPR (0.1 µM peptide) is reported as 1.04 x-fold of basal; on PrRPR (10 µM peptide), 1.27 x-fold of basal. The “cAMP, x-fold of forskolin (mean), NPR-1” value on NPR-1 (0.1 µM peptide) is on record as 0.98 x-fold of forskolin; at NPR-1 (10 µM peptide), 0.89 x-fold of forskolin.
Turning to “NPENDTPFGTMRF-NH2 [FLP-3-4, C. elegans FMRFamide-like peptide, C-terminally amidated, synthesized by SPPS]”, the “cAMP, x-fold of forskolin (mean), NPR-6” value in the experiment on NPR-6 (0.1 µM peptide) was 0.85 x-fold of forskolin; with NPR-6 (10 µM peptide), 0.26 x-fold of forskolin. The figures for the “cAMP, x-fold of forskolin (mean), NPR-4b” value at NPR-4b (0.1 µM peptide) and on NPR-4b (10 µM peptide) were 0.67 x-fold of forskolin and 0.23 x-fold of forskolin, respectively. The “IP accumulation, x-fold of basal” value at PrRPR (0.1 µM peptide) is given as 1.86 x-fold of basal; on PrRPR (10 µM peptide), 0.96 x-fold of basal. Besides, the “cAMP, x-fold of forskolin (mean), NPR-1” value on NPR-1 (0.1 µM peptide) is on record as 0.87 x-fold of forskolin; on NPR-1 (10 µM peptide), 0.89 x-fold of forskolin.
“TPDINPAWYASRGIRPVGRF-NH2 [PrRP20, human prolactin-releasing peptide, 20 residues, reference compound]”: the “cAMP, x-fold of forskolin (mean), NPR-6” value in the experiment with NPR-6 (0.1 µM peptide) is on record as 0.96 x-fold of forskolin; in the experiment on NPR-6 (10 µM peptide) it was 1.19 x-fold of forskolin. For the same substance, the “cAMP, x-fold of forskolin (mean), NPR-4b” value at NPR-4b (0.1 µM peptide) is given as 1.10 x-fold of forskolin; at NPR-4b (10 µM peptide), 0.67 x-fold of forskolin. The “IP accumulation, x-fold of basal” value at PrRPR (0.1 µM peptide) is reported as 26.01 x-fold of basal; at PrRPR (10 µM peptide), 27.38 x-fold of basal. Further, the “cAMP, x-fold of forskolin (mean), NPR-1” value is 1.14 x-fold of forskolin at NPR-1 (0.1 µM peptide) and 1.45 x-fold of forskolin on NPR-1 (10 µM peptide).
In the case of “EASAFGDIIGELKGKGLGGRMRF-NH2 [FLP-27, NPY-like C. elegans FLP with C-terminal RxRF/Ya signature]”, the “cAMP, x-fold of forskolin (mean), NPR-6” value is on record as 1.02 x-fold of forskolin in the experiment with NPR-6 (0.1 µM peptide) and 0.88 x-fold of forskolin with NPR-6 (10 µM peptide). Further, the results for the “cAMP, x-fold of forskolin (mean), NPR-4b” value at NPR-4b (0.1 µM peptide) and on NPR-4b (10 µM peptide) were 1.07 x-fold of forskolin and 0.57 x-fold of forskolin, respectively. In addition, the “IP accumulation, x-fold of basal” value at PrRPR (0.1 µM peptide) is reported as 0.93 x-fold of basal; at PrRPR (10 µM peptide) it was 0.91 x-fold of basal. Further, the “cAMP, x-fold of forskolin (mean), NPR-1” value at NPR-1 (0.1 µM peptide) is given as 0.91 x-fold of forskolin; at NPR-1 (10 µM peptide), 0.71 x-fold of forskolin.
For the substance PrRP31 [reference compound], the “cAMP, x-fold of forskolin (mean), NPR-6” value is on record as 0.96 x-fold of forskolin with NPR-6 (0.1 µM peptide) and 1.25 x-fold of forskolin in the experiment with NPR-6 (10 µM peptide). In addition, the “cAMP, x-fold of forskolin (mean), NPR-4b” value on NPR-4b (0.1 µM peptide) is reported as 1.05 x-fold of forskolin; on NPR-4b (10 µM peptide), 0.64 x-fold of forskolin. Also, the figures for the “IP accumulation, x-fold of basal” value on PrRPR (0.1 µM peptide) and at PrRPR (10 µM peptide) were 25.49 x-fold of basal and 25.47 x-fold of basal, respectively. Further, the entries for the “cAMP, x-fold of forskolin (mean), NPR-1” value on NPR-1 (0.1 µM peptide) and on NPR-1 (10 µM peptide) were 1.30 x-fold of forskolin and 1.41 x-fold of forskolin, respectively.
As for “APLEGFEDMSGFLRTIDGIQKPRF-NH2 [FLP-33, NPY-like C. elegans FLP with C-terminal RxRF/Ya signature]”, the entries for the “cAMP, x-fold of forskolin (mean), NPR-6” value in the experiment with NPR-6 (0.1 µM peptide) and in the experiment with NPR-6 (10 µM peptide) were 0.86 x-fold of forskolin and 0.91 x-fold of forskolin, respectively. For the same substance, the figures for the “cAMP, x-fold of forskolin (mean), NPR-4b” value on NPR-4b (0.1 µM peptide) and at NPR-4b (10 µM peptide) were 0.85 x-fold of forskolin and 0.79 x-fold of forskolin, respectively. Also, the “IP accumulation, x-fold of basal” value on PrRPR (0.1 µM peptide) is given as 0.91 x-fold of basal; at PrRPR (10 µM peptide), 0.88 x-fold of basal. Besides, the “cAMP, x-fold of forskolin (mean), NPR-1” value is on record as 0.72 x-fold of forskolin at NPR-1 (0.1 µM peptide) and 0.82 x-fold of forskolin on NPR-1 (10 µM peptide).

Source of the values: PMC6751662, “Pharmacological and functional similarities of the human neuropeptide Y system in C. elegans challenges phylogenetic views on the FLP/NPR system” (Cell Communication and Signaling : CCS, 2019).
